Laboratory results as given in patent US9255101B2 (BIOPROJECT, priority 2012, dated 2016).
Counter-ions that a name gives are not always drawn.

What was measured:
human H4 receptor [1] = biological target: T1, human H4 receptor (Homo sapiens, UniProt Q9H3N8); assay: biochemical
human H4 receptor [2] = biological target: T1, human H4 receptor; assay: biochemical; remark: listed apart in the source
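For IC50 in this document: membranes from SH-SY5Y cells with stable human H4 receptor expression, incubated with GDP 10 µM, radioactivity retained on filters counted by liquid scintillation.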
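For Ki in this document: radioligand displacement of a [3H]-labelled ligand from membranes of CHO cells stably expressing human H4 receptor, bound radioactivity counted on filters by liquid scintillation.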

| SMILES | IC50 (human H4 receptor [1]) | Ki (human H4 receptor [2]) |
| --- | --- | --- |
| CN1CCC(OC2c3ccccc3CCn3cc(-c4ccccc4Cl)nc32)CC1 (stereo not drawn) [Example 26, 2-(2-chlorophenyl)-4-(1-methylpiperidin-4-yloxy)-9,10-dihydro-4H-3,10a-diaza-benzo[f]azulene oxalate] | < 300 nM | < 30 nM |
| CN1CCC(OC2c3ccccc3CCn3cc(-c4ccccc4F)nc32)CC1 (stereo not drawn) [Example 27, 2-(2-fluorophenyl)-4-(1-methylpiperidin-4-yloxy)-9,10-dihydro-4H-3,10a-diaza-benzo[f]azulene] | < 300 nM | < 300 nM |
| CN1CCC(OC2c3ccccc3CCn3cc(-c4ccc(S(=O)(=O)N(C)C)cc4)nc32)CC1 (stereo not drawn) [Example 29, N,N-dimethyl-4-[4-(1-methylpiperidin-4-yloxy)-9,10-dihydro-4H-3,10a-diaza-benzo[f]azulen-2-yl]-benzenesulfonamide] | < 300 nM | < 300 nM |
| C=CCc1cn2c(n1)C(OC1CCN(C)CC1)c1ccccc1CC2 (stereo not drawn) [Example 30, 2-allyl-4-(1-methylpiperidin-4-yloxy)-9,10-dihydro-4H-3,10a-diaza-benzo[f]azulene oxalate] | < 300 nM | < 300 nM |
| CC(C)c1ccc(-c2cn3c(n2)C(OC2CCN(C)CC2)c2ccccc2CC3)cc1 (stereo not drawn) [Example 32, 2-(4-isopropylphenyl)-4-(1-methyl-piperidin-4-yloxy)-9,10-dihydro-4H-3,10a-diaza-benzo[f]azulene oxalate] | < 300 nM | < 300 nM |
| CN1CCC(OC2c3ccccc3CCn3cc(-c4ccc(CC#N)cc4)nc32)CC1 (stereo not drawn) [Example 33, {4-[4-(1-methylpiperidin-4-yloxy)-9,10-dihydro-4H-3,10a-diaza-benzo[f]azulen-2-yl]-phenyl}-acetonitrile oxalate] | < 300 nM | < 300 nM |
| CCCCc1ccc(-c2cn3c(n2)C(OC2CCN(C)CC2)c2ccccc2CC3)cc1 (stereo not drawn) [Example 41, 2-(4-butylphenyl)-4-(1-methylpiperidin-4-yloxy)-9,10-dihydro-4H-3,10a-diaza-benzo[f]azulene oxalate] | < 300 nM | < 30 nM |
| CCCCCCc1ccc(-c2cn3c(n2)C(OC2CCN(C)CC2)c2ccccc2CC3)cc1 (stereo not drawn) [Example 43, 2-(4-hexylphenyl)-4-(1-methylpiperidin-4-yloxy)-9,10-dihydro-4H-3,10a-diaza-benzo[f]azulene] | < 300 nM | < 300 nM |
| CN1CCC(OC2c3ccccc3CCn3cc(-c4cccs4)nc32)CC1 (stereo not drawn) [Example 47, 4-(1-methylpiperidin-4-yloxy)-2-thiophen-2-yl-9,10-dihydro-4H-3,10a-diaza-benzo[f]azulene oxalate] | < 300 nM | < 300 nM |
| CN1CCC(OC2c3ccccc3CCn3cc(-c4ccc(NC(=O)OC(C)(C)C)cc4)nc32)CC1 (stereo not drawn) [Example 49, {4-[4-(1-methylpiperidin-4-yloxy)-9,10-dihydro-4H-3,10a-diaza-benzo[f]azulen-2-yl]-phenyl}-carbamic acid tert-butyl ester] | < 300 nM | < 30 nM |
| CN1CCC(OC2c3ccccc3CCn3cc(-c4ccc5c(c4)OCO5)nc32)CC1 (stereo not drawn) [Example 50, 2-benzo[1,3]dioxol-5-yl-4-(1-methylpiperidin-4-yloxy)-9,10-dihydro-4H-3,10a-diaza-benzo[f]azulene] | < 1000 nM | < 30 nM |
| CN1CCC(OC2c3ccccc3CCn3cc(C4=CCCCC4)nc32)CC1 (stereo not drawn) [Example 62, 2-cyclohex-1-enyl-4-(1-methylpiperidin-4-yloxy)-9,10-dihydro-4H-3,10a-diaza-benzo[f]azulene oxalate] | < 300 nM | < 300 nM |
| CN1CCC(OC2c3ccccc3CCn3cc(-c4ccc(C(C)(F)F)cc4)nc32)CC1 (stereo not drawn) [Example 64, 2-[4-(1,1-difluoroethyl)-phenyl]-4-(1-methylpiperidin-4-yloxy)-9,10-dihydro-4H-3,10a-diaza-benzo[f]azulene oxalate] | < 30 nM | < 300 nM |
| CN1CCC(OC2c3ccccc3CCn3cc(C4=CCCC4)nc32)CC1 (stereo not drawn) [Example 65, 2-cyclopent-1-enyl-4-(1-methylpiperidin-4-yloxy)-9,10-dihydro-4H-3,10a-diaza-benzo[f]azulene] | < 1000 nM | < 300 nM |
| CN1CCC(OC2c3ccccc3CCn3cc(SCc4ccccc4)nc32)CC1 (stereo not drawn) [Example 67, 2-benzylsulfanyl-4-(1-methylpiperidin-4-yloxy)-9,10-dihydro-4H-3,10a-diaza-benzo[f]azulene oxalate] | < 300 nM | < 300 nM |
| CN1CCC(OC2c3ccccc3CCn3cc(-c4cccc(F)c4)nc32)CC1 (stereo not drawn) [Example 68, 2-(3-fluorophenyl)-4-(1-methylpiperidin-4-yloxy)-9,10-dihydro-4H-3,10a-diaza-benzo[f]azulene oxalate] | < 300 nM | < 30 nM |

Next, values leading:

| IC50 (human H4 receptor [1]) | Ki (human H4 receptor [2]) | SMILES |
| --- | --- | --- |
| < 30 nM | < 30 nM | CN1CCC(OC2c3ccccc3CCn3cc(-c4ccc(C(F)(F)F)cc4)nc32)CC1 (stereo not drawn) [Example 25, 4-(1-methylpiperidin-4-yloxy)-2-(4-trifluoromethylphenyl)-9,10-dihydro-4H-3,10a-diaza-benzo[f]azulene] |
| < 30 nM | < 300 nM | CN1CCC(OC2c3ccccc3CCn3cc(-c4ccc(C(=O)C(F)(F)F)cc4)nc32)CC1 (stereo not drawn) [Example 31, 2,2,2-trifluoro-1-{4-[4-(1-methylpiperidin-4-yloxy)-9,10-dihydro-4H-3,10a-diaza-benzo[f]azulen-2-yl]-phenyl}-ethanone oxalate] |
| < 30 nM | < 30 nM | CN1CCC(OC2c3ccccc3CCn3cc(-c4ccc(C(=O)OC(C)(C)C)cc4)nc32)CC1 (stereo not drawn) [Example 36, 4-[4-(1-methylpiperidin-4-yloxy)-9,10-dihydro-4H-3,10a-diaza-benzo[f]azulen-2-yl]-benzoic acid tert-butyl ester] |
| < 30 nM | < 30 nM | CN1CCC(OC2c3ccccc3CCn3cc(-c4ccc(C#N)cc4)nc32)CC1 (stereo not drawn) [Example 37, 4-[4-(1-methylpiperidin-4-yloxy)-9,10-dihydro-4H-3,10a-diaza-benzo[f]azulen-2-yl]-benzonitrile] |
| < 30 nM | < 300 nM | CN1CCC(OC2c3ccccc3CCn3cc(CCc4ccccc4)nc32)CC1 (stereo not drawn) [Example 38, 4-(1-methylpiperidin-4-yloxy)-2-phenethyl-9,10-dihydro-4H-3,10a-diaza-benzo[f]azulene oxalate] |
| < 30 nM | < 30 nM | CCCCCc1ccc(-c2cn3c(n2)C(OC2CCN(C)CC2)c2ccccc2CC3)cc1 (stereo not drawn) [Example 42, 4-(1-methylpiperidin-4-yloxy)-2-(4-pentylphenyl)-9,10-dihydro-4H-3,10a-diaza-benzo[f]azulene] |
| < 30 nM | < 30 nM | CCSc1ccc(-c2cn3c(n2)C(OC2CCN(C)CC2)c2ccccc2CC3)cc1 (stereo not drawn) [Example 46, 2-(4-ethylsulfanylphenyl)-4-(1-methylpiperidin-4-yloxy)-9,10-dihydro-4H-3,10a-diaza-benzo[f]azulene oxalate] |
| < 30 nM | < 30 nM | CN1CCC(OC2c3ccccc3CCn3cc(-c4ccc(F)cc4)nc32)CC1 (stereo not drawn) [Example 56, 2-(4-fluorophenyl)-4-(1-methylpiperidin-4-yloxy)-9,10-dihydro-4H-3,10a-diaza-benzo[f]azulene] |
